Drawing on ChEMBL document CHEMBL1795225, “Flavonoids as inhibitors of human CD38” (Bioorg Med Chem Lett, 2011), this text covers IC50 for 18 compounds.

Molecules are shown by their SMILES.

This test concerns the target T1, ADP-ribosyl cyclase/cyclic ADP-ribose hydrolase 1 (Homo sapiens, UniProt P28907).
T1 sequence (P28907 whole entry): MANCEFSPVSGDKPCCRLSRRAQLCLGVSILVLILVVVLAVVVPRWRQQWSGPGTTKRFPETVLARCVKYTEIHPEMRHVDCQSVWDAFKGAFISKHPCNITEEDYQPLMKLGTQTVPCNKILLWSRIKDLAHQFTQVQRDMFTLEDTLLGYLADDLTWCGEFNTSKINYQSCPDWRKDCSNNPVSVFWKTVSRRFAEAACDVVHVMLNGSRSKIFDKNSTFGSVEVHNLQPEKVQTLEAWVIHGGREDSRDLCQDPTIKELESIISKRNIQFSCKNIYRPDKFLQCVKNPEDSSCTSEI
Put plainly: Inhibition of human CD38 using 20 uM 1, N6-etheno NAD+ as substrate by continuous fluorimetric method.

One may read the IC50 as the concentration needed to halve the response being measured. Read a low IC50 as inhibition by little substance. `Oc1ccc(/C=C/c2cc(O)cc(O)c2)cc1` [RESVERATROL] yielded a 50% inhibitory concentration (IC50) above 100 µM. Next, `COc1ccc(-c2ccc3c(O)cc(O)cc3[o+]2)cc1O` [DIOSMETINIDIN]: 32.1 µM; `Oc1ccc(-c2[o+]c3cc(O)c(O)c(O)c3cc2O)cc1O`: 14.2 µM.

Consider `Oc1cc(O)c2cc(O)c(-c3cc(O)c(O)c(O)c3)[o+]c2c1` [DELPHINIDIN], for which the midpoint of inhibition, the IC50, lay at 14.6 µM.

As to `O=c1cc(-c2ccc(O)c(O)c2)oc2cc(O)cc(O)c12` [LUTEOLIN], half-maximal inhibition (IC50) required 8.2 µM. To `COc1cc(-c2[o+]c3cc(O)cc(O)c3cc2O)cc(OC)c1O` [MALVIDIN] belongs 17 µM; to `OC[C@H]1O[C@@H](Oc2cc3c(O)cc(O)cc3[o+]c2-c2ccc(O)c(O)c2)[C@H](O)[C@@H](O)[C@@H]1O` [KUROMANIN], 6.3 µM. To `O=c1c(O)c(-c2ccc(O)c(O)c2)oc2cc(O)c(O)c(O)c12` [QUERCETAGETIN] belongs 48.6 µM; to `Oc1cc(O)c2c(c1)OC(c1ccc(O)c(O)c1)C(O)C2` (racemic) [CATECHIN], above 100 µM.

`Oc1cc(O)c2ccc(-c3ccc(O)c(O)c3)[o+]c2c1` [LUTEOLINIDIN] yielded an IC50 of 6 µM.

Take `COc1cc(-c2[o+]c3cc(O)cc(O)c3cc2O)cc(O)c1O` [PETUNIDIN]: the half-maximal inhibitory concentration (IC50) came to 39.2 µM. To `Oc1ccc(-c2[o+]c3cc(O)cc(O)c3cc2O)cc1` [PELARGONIDIN] belongs 16.3 µM; to `Oc1cc(O)cc(/C=C/c2ccc(O)c(O)c2)c1` [PICEATANNOL], above 100 µM. To `O=c1c(O)c(-c2ccc(O)c(O)c2)oc2cc(O)cc(O)c12` [QUERCETIN] belongs 37.9 µM. Next, `Oc1ccc2cc(O)c(-c3ccc(O)c(O)c3)[o+]c2c1` [FISETINIDIN]: 70.3 µM. `O=c1c(O)c(-c2cc(O)c(O)c(O)c2)oc2cc(O)cc(O)c12` [MYRICETIN] registered a concentration for half-maximal inhibition (IC50) of 24.8 µM. The compound `Oc1cc(O)c2cc(O)c(-c3ccc(O)c(O)c3)[o+]c2c1` [CYANIDIN] came in with a half-inhibitory concentration (IC50) of 21.8 µM. To `O=c1c(O)c(-c2cc(O)c(O)c(O)c2)oc2cc(O)ccc12` [ROBINETIN] belongs 37.9 µM.
